Key:
Type in all cases: cell-based, Human
[1] = tested on: A549 NSCLC cell line; assay: Clonogenic survival, TTFields + Olaparib combination (Highest Single Agent CI); details: for CI TTFields + Olap 12.5 μM: Olaparib 12.5 μM; for CI TTFields + Olap 12.5 μM / CI TTFields + Olap 25 μM / CI TTFields + Olap 50 μM: CI>1 = synergistic; for CI TTFields + Olap 25 μM: Olaparib 25 μM; for CI TTFields + Olap 50 μM: Olaparib 50 μM
Experimental: (§1) Experiments similar to those discussed above in connection with Table 2 and FIG. 6 were also conducted, but with exposure to IR replaced with exposure to three different concentrations (either 10, 20, and 40 μM; or 12.5, 25, and 50 μM, depending on the cell line) of the PARP inhibitor Olaparib. More specifically, Olaparib at each of the different concentrations was added to cells and the cells were then exposed to TTFields for 30 or 60 h (or not exposed to TTFields for the control) and immediately plated for survival. Baseline growth curves for exposing the various NSCLC cell lines to different concentrations of Olaparib without TTFields are depicted in FIG. 7. Clonogenic assays are depicted in FIG. 8 for the different combinations of drug concentration and TTFields exposure time in Table 3.
(§2) The inventors considered the combined effect of TTFields and Olaparib to be synergistic if the combination index (CI) was >1 and the P-value was <0.05 for a given time point and a given cell line.
(§3) Human NSCLC cell lines (H157, H4006, A549, H1299 and H1650) were purchased from American Tissue Culture Collection. All these cell lines were grown in RPMI medium supplemented with 10% (v/v) fetal bovine serum (Atlanta Biologicals, Flowery Branch, Ga., USA) and penicillin/[…] (final concentration 50 μg/ml; Sigma-Aldrich, St. Louis, Mo., U29SA). All cells were grown at 37° C. in a humidified incubator constantly supplied with 5% CO2.
(§4) The inventors used the inovitro system (NovoCure Ltd, Haifa, Israel) to generate TTFields that use two pairs of electrodes printed perpendicularly on the outer walls of a Petri dish composed of high dielectric constant ceramic (lead magnesium niobate-lead titanite (PMN-PT)). The transducer arrays were connected to a sinusoidal waveform generator that generate low-intensity electric fields at the desired frequencies in the medium as summarized in Table 1 above. The orientation of the TTFields was switched 90° every 1 s, thus covering the majority of the orientation axis of cell divisions, as previously described by Kirson et al. Plate temperature was maintained at 37° C. by placing the plates in a refrigerated incubator where the temperature was maintained at 19° C. to dissipate the heat generated by the inovitro system. The temperature was measured by 2 thermistors (Omega Engineering, Stamford, Conn., USA) attached to the ceramic walls. All cell suspensions were grown on a cover slip inside the inovitro dish (NovoCure Ltd) and treated with TTFields for the times indicated in the figure legends.
(§5) To study the effect of radiation sensitivity on NSCLC cells, exponentially growing cells were treated with IR using a Mark II Cs irradiator (J L Shepherd and Associates) at a dose rate of 3.47 Gy/min, followed by immediate application of TTFields for 24, 48 and 72 h. Cells were then re-seeded into 60 mm dishes and incubated for up to 2 weeks. Colonies containing 50 or more cells were considered viable. The data are presented as the mean±S.E.M. of three independent experiments. The radiosensitization effect of TTFields was evaluated according to The Highest Single Agent approach by calculating the CI as given below. CI=SFIR×SFTTFields)/SFIR+TTFields Where SF=Survivalfraction
(§6) The combination effect was considered enhanced/synergistic when CI>1, additive when CI=1. Statistical significance for a positive effect was determined by the P-value of a two-way ANOVA multiple comparison statistical test comparing the combination (TTFields plus IR) to the single agent showing the greatest cell killing for a given dose and time after IR.

[2] = tested on: H1299 NSCLC cell line; assay: as above; details: for CI TTFields + Olap 10 μM: Olaparib 10 μM; for CI TTFields + Olap 10 μM / CI TTFields + Olap 20 μM / CI TTFields + Olap 40 μM: CI>1 = synergistic; for CI TTFields + Olap 20 μM: Olaparib 20 μM; for CI TTFields + Olap 40 μM: Olaparib 40 μM
Experimental: as §1, §2, §3, §4, §5, §6

[3] = tested on: H157 NSCLC cell line; assay: as above; details: for CI TTFields + Olap 10 μM: Olaparib 10 μM; for CI TTFields + Olap 10 μM / CI TTFields + Olap 20 μM / CI TTFields + Olap 40 μM: CI>1 = synergistic; for CI TTFields + Olap 20 μM: Olaparib 20 μM; for CI TTFields + Olap 40 μM: Olaparib 40 μM
Experimental: as §1, §2, §3, §4, §5, §6

[4] = tested on: H4006 NSCLC cell line; assay: as above; details: for CI TTFields + Olap 12.5 μM: Olaparib 12.5 μM; for CI TTFields + Olap 12.5 μM / CI TTFields + Olap 25 μM / CI TTFields + Olap 50 μM: CI>1 = synergistic; for CI TTFields + Olap 25 μM: Olaparib 25 μM; for CI TTFields + Olap 50 μM: Olaparib 50 μM
Experimental: as §1, §2, §3, §4, §5, §6

[5] = tested on: H1299 cell line; assay: Clonogenic survival, triple combination of TTFields, IR and Olaparib (CI); details: Olaparib 20 μM; for CI TTFields + Olap + 1 Gy: 1 Gy IR; for CI TTFields + Olap + 2 Gy: 2 Gy IR; for CI TTFields + Olap: no IR
Experimental: (§7) Experiments similar to those discussed above in connection with Table 2 and FIG. 6 were also conducted for H1299 and H157 cell lines, both with and without the PARP inhibitor Olaparib. More specifically, Olaparib (at a concentration of 20 μM) was added to cells, the cells were immediately exposed to TTFields for 24, […], or 72 h, removed, irradiated (at different doses of radiation), and immediately plated for survival.
(§8) The combination effect was evaluated using the Highest Single Agent approach and are listed in Table 4 and depicted in FIGS. 9A and 9B, which summarize the clonogenic assays for the different combinations of RT dosage and TTFields exposure time in the table, both with and without the Olaparib.
as §2, §3, §4, §5
(§9) For the Triple Combination of TTFields, IR, and Olaparib, CI was calculated using the following equations: CI(TTFields+olap)=(SFOlap×SFTTFields)/SFOlap+TTFields CI(TTFields+1Gy)=(SF1Gy×SFTTFields)/SF1Gy+TTFields CI(TTFields+2Gy)=(SF2Gy×SFTTFields)/SF2Gy+TTFields CI(TTFields+olap+1Gy)=(SF1Gy+Olap×SFTTFields)/SFOlap+TTFields+1Gy CI(TTFields+olap+2Gy)=(SF2Gy+Olap×SFTTFields)/SFOlap+TTFields+2Gy Where SF=Survival fraction

[6] = tested on: H157 cell line; assay: as above; details: Olaparib 20 μM; for CI TTFields + Olap + 1 Gy: 1 Gy IR; for CI TTFields + Olap + 2 Gy: 2 Gy IR; for CI TTFields + Olap: no IR
Experimental: as §7, §8, §2, §3, §4, §5, §9

[7] = tested on: H1299 cell line; assay: as above; details: TTFields 48 h, Olaparib 20 μM
[8] = all tested concentrations, synergistic if CI >1 and P <0.05
[9] = synergistic if CI >1 and P <0.05

O=C(c1cc(Cc2n[nH]c(=O)c3ccccc23)ccc1F)N1CCN(C(=O)C2CC2)CC1 [Olaparib]
CI TTFields + Olap 12.5 μM ([1]; TTFields 30 h): 1.12 | CI TTFields + Olap 25 μM ([1]; TTFields 30 h): 1.46 | CI TTFields + Olap 50 μM ([1]; TTFields 30 h): 1.32 | CI TTFields + Olap 12.5 μM ([1]; TTFields 60 h): 1.39 | CI TTFields + Olap 25 μM ([1]; TTFields 60 h): 1.716 | CI TTFields + Olap 50 μM ([1]; TTFields 60 h): 1.53 | combined effect of TTFields and Olaparib on cell death [1, 8]: synergistic | CI TTFields + Olap 10 μM ([2]; TTFields 30 h): 1.12 | CI TTFields + Olap 20 μM ([2]; TTFields 30 h): 1.42 | CI TTFields + Olap 40 μM ([2]; TTFields 30 h): 1.9 | CI TTFields + Olap 10 μM ([2]; TTFields 60 h): 1.4 | CI TTFields + Olap 20 μM ([2]; TTFields 60 h): 1.5 | CI TTFields + Olap 40 μM ([2]; TTFields 60 h): 3.7 | combined effect of TTFields and Olaparib on cell death [2, 8]: synergistic | CI TTFields + Olap 10 μM ([3]; TTFields 30 h): 1.3 | CI TTFields + Olap 20 μM ([3]; TTFields 30 h): 1.44 | CI TTFields + Olap 40 μM ([3]; TTFields 30 h): 1.78 | CI TTFields + Olap 10 μM ([3]; TTFields 60 h): 1.63 | CI TTFields + Olap 20 μM ([3]; TTFields 60 h): 1.43 | CI TTFields + Olap 40 μM ([3]; TTFields 60 h): 1.68 | combined effect of TTFields and Olaparib on cell death [3, 8]: synergistic | CI TTFields + Olap 12.5 μM ([4]; TTFields 30 h): 1.17 | CI TTFields + Olap 25 μM ([4]; TTFields 30 h): 1.17 | CI TTFields + Olap 50 μM ([4]; TTFields 30 h): 1.32 | CI TTFields + Olap 12.5 μM ([4]; TTFields 60 h): 1.13 | CI TTFields + Olap 25 μM ([4]; TTFields 60 h): 1.34 | CI TTFields + Olap 50 μM ([4]; TTFields 60 h): 1.96 | combined effect of TTFields and Olaparib on cell death [4, 8]: synergistic | combined effect of TTFields, IR, and Olaparib on cell death [5, 9]: synergistic | CI TTFields + Olap + 1 Gy ([5]; TTFields 24 h): 1.64 | CI TTFields + Olap + 2 Gy ([5]; TTFields 24 h): 1.96 | CI TTFields + Olap ([5]; TTFields 24 h): 1.03 | CI TTFields + Olap + 1 Gy ([5]; TTFields 72 h): 1.89 | CI TTFields + Olap + 2 Gy ([5]; TTFields 72 h): 3.08 | CI TTFields + Olap ([5]; TTFields 72 h): 1.06 | combined effect of TTFields, IR, and Olaparib on cell death [6, 9]: synergistic | CI TTFields + Olap + 1 Gy ([6]; TTFields 24 h): 2.25 | CI TTFields + Olap + 2 Gy ([6]; TTFields 24 h): 2.36 | CI TTFields + Olap ([6]; TTFields 24 h): 0.97 | CI TTFields + Olap + 1 Gy ([6]; TTFields 48 h): 2.12 | CI TTFields + Olap + 2 Gy ([6]; TTFields 48 h): 2.07 | CI TTFields + Olap ([6]; TTFields 48 h): 1.02 | CI TTFields + Olap + 1 Gy ([6]; TTFields 72 h): 1.66 | CI TTFields + Olap + 2 Gy ([6]; TTFields 72 h): 2.57 | CI TTFields + Olap ([6]; TTFields 72 h): 1.49 | CI TTFields + Olap + 1 Gy ([7]; 1 Gy IR): 1.70 | CI TTFields + Olap + 2 Gy ([7]; 2 Gy IR): 2.20 | CI TTFields + Olap ([7]; no IR): 1.02
